According to ChEMBL document CHEMBL3853264 (Medchemcomm, 2016):

How the values were obtained:
[1] = Intrinsic clearance in human liver microsomes; format: ADME; details: read-out: CLH
[2] = Octanol-water partition co-efficient, log D of the compound by shake flask method; format: physicochemical
[3] = molecular target: T1, Solute carrier family 22 member 12 (Homo sapiens, UniProt Q96S37); assay: Inhibition of human C-terminal eGFP-tagged URAT1 long isoform expressed in CHO cells assessed as decrease in [14C]-uric acid uptake preincubated for 15 mins followed by [14C]-uric acid addition and incubated in dark for 3 hrs by scintillation counting method; format: cell-based
T1 sequence (Q96S37 whole entry): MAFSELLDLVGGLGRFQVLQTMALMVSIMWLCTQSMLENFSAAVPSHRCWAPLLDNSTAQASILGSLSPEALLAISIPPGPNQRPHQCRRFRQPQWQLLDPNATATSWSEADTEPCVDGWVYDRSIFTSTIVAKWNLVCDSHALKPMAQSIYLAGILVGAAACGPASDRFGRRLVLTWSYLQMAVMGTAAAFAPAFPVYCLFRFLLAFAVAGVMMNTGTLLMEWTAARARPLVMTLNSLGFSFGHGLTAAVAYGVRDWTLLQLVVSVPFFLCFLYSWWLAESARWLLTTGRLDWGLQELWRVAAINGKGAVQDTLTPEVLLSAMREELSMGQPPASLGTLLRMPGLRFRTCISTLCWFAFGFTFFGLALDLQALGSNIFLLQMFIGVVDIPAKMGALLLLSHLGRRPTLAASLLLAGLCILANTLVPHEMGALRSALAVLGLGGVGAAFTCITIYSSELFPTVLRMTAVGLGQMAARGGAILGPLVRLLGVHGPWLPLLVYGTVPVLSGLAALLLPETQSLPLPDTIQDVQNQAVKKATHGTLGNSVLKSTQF

Structure (SMILES) | microsomal CLint [1] | logD [2] | IC50 [3]
N#Cc1ccc(Oc2ccc(S(=O)(=O)Nc3ccc(F)cn3)cc2C#N)cc1 | < 8 µL/min/mg | – | –
N#Cc1ccc(Oc2ccc(S(=O)(=O)Nc3ccc(F)cn3)cc2C#N)c(Cl)c1 | < 8 µL/min/mg | 1.9 | –
N#Cc1ccc(Oc2ccc(S(=O)(=O)Nc3ccncn3)cc2C#N)cc1Cl | – | – | 5150 nM
N#Cc1ccc(Oc2ccc(S(=O)(=O)Nc3ccccn3)cc2C#N)cc1Cl | – | – | 115 nM
N#Cc1ccc(Oc2ccc(S(=O)(=O)Nc3ncccn3)cc2C#N)cc1Cl | – | – | 1820 nM

More lines, now with the values ahead:

microsomal CLint [1] | logD [2] | IC50 [3] | Structure (SMILES)
65 µL/min/mg | – | – | N#Cc1cccc(Oc2ccc(S(=O)(=O)Nc3ccc(F)cn3)cc2C#N)c1
83 µL/min/mg | 1.5 | – | N#Cc1cc(Oc2ccc(S(=O)(=O)Nc3ccc(F)cn3)cc2C#N)ccc1F
< 8 µL/min/mg | 1.4 | – | N#Cc1ccc(Oc2ccc(S(=O)(=O)Nc3ccc(F)cn3)cc2C#N)cc1F
134 µL/min/mg | 2 | – | N#Cc1cc(Oc2ccc(S(=O)(=O)Nc3ccc(F)cn3)cc2C#N)ccc1Cl
163 µL/min/mg | 2.3 | – | N#Cc1cc(S(=O)(=O)Nc2ccc(F)cn2)ccc1Oc1ccc(F)c(Cl)c1
